Source: PMC6694155, “PTPσ inhibitors promote hematopoietic stem cell regeneration” (Nature Communications, 2019)
Values joined by “and” are separate entries in the source; they are usually repeats but may differ in a detail not shown here. Equal values may be shown once. “Also recorded” adds a separate entry of the source.

Experiments:
[1] = target: T1, PTPMEG2 (Protein Tyrosine Phosphatase Non-Receptor Type 9) (Homo sapiens, UniProt P43378); test: PhosphataseProfiler screen: PTPMEG2; type: biochemical; details: replicates
T1 construct: purchased Eurofins Pharma Discovery Services UK
T1 sequence (P43378 whole entry): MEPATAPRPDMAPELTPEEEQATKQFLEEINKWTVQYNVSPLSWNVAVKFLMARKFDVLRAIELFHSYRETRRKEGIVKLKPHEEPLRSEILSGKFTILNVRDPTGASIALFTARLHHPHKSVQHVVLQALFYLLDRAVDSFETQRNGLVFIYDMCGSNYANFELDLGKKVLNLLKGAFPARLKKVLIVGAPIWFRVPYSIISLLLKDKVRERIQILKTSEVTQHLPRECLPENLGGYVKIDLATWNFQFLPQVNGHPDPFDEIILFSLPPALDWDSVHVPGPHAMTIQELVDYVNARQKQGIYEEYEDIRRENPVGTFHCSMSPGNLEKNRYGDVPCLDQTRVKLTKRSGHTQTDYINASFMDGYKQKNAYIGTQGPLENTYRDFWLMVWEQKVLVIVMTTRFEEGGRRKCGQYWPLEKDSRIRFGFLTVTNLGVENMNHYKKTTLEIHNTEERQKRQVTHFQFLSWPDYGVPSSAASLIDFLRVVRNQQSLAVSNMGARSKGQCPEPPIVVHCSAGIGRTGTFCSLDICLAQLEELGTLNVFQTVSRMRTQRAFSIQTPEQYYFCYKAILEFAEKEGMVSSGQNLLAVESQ
Description: (§1) Compound DJ001 was evaluated in a PhosphataseProfiler™ screen at 10 μM and 1 μM (2.7 μg/mL and 0.27 μg/mL) concentrations at Eurofins Pharma Discovery Services UK (Study number UK022-0004033) against a panel of 21 Phosphatases. In each experiment, the respective reference antagonist/agonist was tested directly with DJ001 and the data were compared with historical values determined at Eurofins. DJ001 compound inhibition was calculated as percentage inhibition of the enzymatic activity compared with control.

[2] = target: T2, SHP-1 (Protein-Tyrosine Phosphatase 1C) (Homo sapiens, UniProt P29350); test: PhosphataseProfiler screen: SHP-1; type: biochemical; details: replicates
T2 construct: purchased Eurofins Pharma Discovery Services UK
T2 sequence (P29350 whole entry, species assumed): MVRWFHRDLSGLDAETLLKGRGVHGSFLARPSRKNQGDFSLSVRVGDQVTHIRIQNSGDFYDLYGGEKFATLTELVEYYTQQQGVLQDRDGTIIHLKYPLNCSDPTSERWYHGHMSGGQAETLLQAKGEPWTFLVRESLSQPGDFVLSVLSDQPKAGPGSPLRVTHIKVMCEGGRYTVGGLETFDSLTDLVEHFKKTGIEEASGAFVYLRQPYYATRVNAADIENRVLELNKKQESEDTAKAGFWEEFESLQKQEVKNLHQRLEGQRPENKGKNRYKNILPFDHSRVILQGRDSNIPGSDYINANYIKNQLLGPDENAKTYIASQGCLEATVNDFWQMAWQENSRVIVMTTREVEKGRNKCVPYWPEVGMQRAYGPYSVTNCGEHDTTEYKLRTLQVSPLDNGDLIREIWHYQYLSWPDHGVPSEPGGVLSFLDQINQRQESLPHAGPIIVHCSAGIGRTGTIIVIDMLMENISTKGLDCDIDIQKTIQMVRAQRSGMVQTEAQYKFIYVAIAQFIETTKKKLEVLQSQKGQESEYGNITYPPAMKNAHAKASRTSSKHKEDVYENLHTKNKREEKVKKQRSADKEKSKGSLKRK
Description: as §1

[3] = tested on: p-PAK1 in BM KSL cells; test: p-PAK1 phospho-flow cytometry of BM KSL cells; type: cell-based, mouse
Description: Intracellular flow cytometric analysis was performed on irradiated (300 cGy) or non-irradiated, sorted KSL cells after treatment with 1 μg/mL DJ001 or control (equal volumes of DMSO) for 24 h. At 24 h after irradiation, cells were fixed with 4% PFA for 10 min, followed by permeabilization using 0.25% saponin in PBS. Cells were washed again and stained with antibody at the recommended concentrations for 30 min at RT. Intracellular antibodies and phospho-flow antibodies used were as follows: FITC-conjugated anti-BCL-XL (Abcam, #26148, 1:100), active RAC1-GTP antibody (NewEast Biosciences, #26903, 1:100) and anti-PAK1 (phospho S144) + PAK2 (phospho S141) + PAK3 (phospho S154) antibody (Abcam, #40795, 1:100), and FITC-conjugated goat anti-rabbit IgG H&L (Abcam, #97050, 1:200).

[4] = tested on: BM KSL cells; test: Cell cycle analysis (Ki67/7AAD) of BM KSL cells; type: cell-based, mouse; design: G0 / G1 / G2SM: unit not given here
Description: Eight- to ten-week-old female C57BL/6 mice were irradiated with 500 cGy TBI followed by subcutaneous injections of 5 mg/kg DJ001 or vehicle, or 5 mg/kg DJ001 plus 40 mg/kg EHT1864. Twenty four hours after irradiation, mice were killed to collect BM cells for Annexin V apoptosis analysis. BM cells were stained with APC-Cy7-conjugated anti-mouse Sca1 (BD Biosciences, #560654, 1:100), PE-conjugated anti-ckit (BD Biosciences, #553355, 1:100), and V450 lineage cocktail (BD Biosciences, #561301, 1:10) antibodies for 30 min at 4 °C. Cells were then resuspended in 1× Annexin V binding buffer and then stained with FITC-conjugated anti-Annexin V antibody (BD Biosciences, #556547,1:50) and 7AAD antibody (BD Biosciences, #559925, 1:40)[68]. For in vitro human BM cell apoptosis assays, isolated human BM CD34^+ cells were plated into 96-well plates and then irradiated with 300 cGy. Immediately after irradiation, cells were treated with 5 μg/mL DJ001 or vehicle for 24 h and then collected for Annexin V cell apoptosis analysis. For cell cycle analysis, BM KSL cells were irradiated at 300 cGy and then treated with 1 μg/mL DJ001 or vehicle for 36 h. Subsequently, cells were resuspended in 200 μL of PBS, fixed with 1 mL of ice-cold fixation solution (0.25% Saponin, 2.5% PFA, 2% fetal calf serum (FCS) in PBS), and incubated for 30 min on ice. Cells were washed in Saponin buffer (0.25% Saponin, 2% FCS in PBS) and resuspended in 200 μL of Saponin buffer containing 20 μL of FITC-conjugated anti-Ki67 antibody (BD Biosciences, #556026, 1:10) and 1 μL of RNase (Qiagen, #19101, 100 mg/mL). After 30 min of incubation, cells were washed in Saponin buffer and resuspended for flow analysis in 200 μL of Saponin buffer containing 5 μL 7AAD (BD Biosciences, #559925, 1:40).

[5] = tested on: DsRed+ BM sca-1+lin− cells in irradiated C57BL/6 mice; test: Homing study; type: in vivo, mouse
Description: Sorted BM sca-1^+lin^− cells (100,000) from DsRed^+ mice were transplanted into lethally irradiated (950 cGy) recipient C57BL/6 mice followed by subcutaneous treatment of 5 mg/kg DJ001 or vehicle × 1 dose. At 18 h post transplantation, BM cells were collected from the recipient mice and were analyzed for percentages of DsRed^+ cells in the BM[17].

[6] = tested on: progeny of irradiated human BM CD34+ cells in NSG mice; test: Human BM transplantation assay in NSG mice; type: in vivo
Description: Human BM mononuclear cells were purchased from AllCells. Cryopreserved human BM cells were recovered in IMDM + 10% FBS + 1% penicillin–streptomycin and then positively selected for CD34^+ stem/progenitor cells by using CD34 MicroBead Kit (Miltenyi Biotec, #130-046-702, 1:5). CD34^+ cells were cultured in human TSF media (IMDM, 10%FBS, 1% pen-strep, 20 ng/mL recombinant human TPO, 125 ng/mL recombinant human SCF, 50 ng/mL recombinant human Flt3 ligand (R&D Systems). The progeny of 2 × 10^5 irradiated, human BM CD34^+ cultured for 36 h and treated with DJ001 at 5 μg/mL, were transplanted via tail vein injection into 10–12-week-old NSG mice preconditioned with 275 cGy TBI. Multilineage donor hematopoietic cell engraftment was monitored in the PB and BM by flow cytometry. The PB or BM cells were stained with BV605-conjugated anti-mouse CD45 (BioLegend, #103139, 1:100), AF647-conjugated anti-human CD34 (BioLegend, #343618, 1:100), FITC-conjugated anti-human CD33 (BD Biosciences, #555626, 1:100), V450-conjugated anti-human CD45 (BD Biosciences, #560368, 1:100), APC-conjugated anti-human CD3 (BD Biosciences, #555342, 1:100), and APC-Cy7-conjugated anti-human CD19 (BD Biosciences, #557791, 1:100) antibodies.

[7] = 36 h following 300 cGy, 1 μg/mL DJ001
[8] = 36 h following 300 cGy, 1 µg/mL DJ001, 6 µg/mL EHT1864, 240 ng/mL SU9516
[9] = cell cycle phase, Supplementary Figure 7h
[10] = progeny of irradiated human BM CD34+ cells, individual mice, in % (unit assumed)

## O=C(/C=C\Nc1cccc([N+](=O)[O-])c1)c1ccccc1 [DJ001, (Z)-3-((3-nitrophenyl)amino)-1-phenylprop-2-en-1-one]
[1]; 0.27 μg/mL DJ001
  Supplementary Figure 1: PTP MEG2 activity: 94 (2×) and 103
[1]; 2.7 μg/mL DJ001
  Supplementary Figure 1: PTP MEG2 activity: 91 and 71 and 95
[2]; 2.7 μg/mL DJ001
  Supplementary Figure 1: SHP-1 activity: 81 and 82 and 85
[2]; 0.27 g/mL DJ001
  Supplementary Figure 1: SHP-1 activity: 99 (2×) and 102
[3]; BM KSL cells, 1 μg/mL DJ001
  phosphorylation of PAK1: increased phosphorylation
[3]; individual replicates
  Figure 3d: p-PAK1 in BM KSL cells: 50.24 and 54.07 and 49.55 and 58.02 and 54.95
[4]; 36 h following 300 cGy
  percentage of KSL cells in G2/S/M phase vs control: significantly increased the percentage of KSL cells in G2/S/M phase
[4]; [7]
  percentages of KSL cells in G0, per replicate (Figure 4a): 10.898% and 7.091% and 6.413% and 9.19% and 8.538% and 7.981% and 5.757%
  percentages of KSL cells in G1, per replicate (Figure 4a): 51.766% and 62.582% and 57.686% and 51.047% and 60.936% and 51.069% and 57.668%
  percentages of KSL cells in G2SM, per replicate (Figure 4a): 36.781% and 29.964% and 35.471% and 38.731% and 30% and 39.75% and 36.236%
[4]; [8]
  percentages of BM cells in G0, per replicate (Figure 4d bottom left panel): 12% and 10% and 8% and 4% and 11%
  percentages of BM cells in G1, per replicate (Figure 4d bottom center panel): 52% and 54% and 51% and 48%
  percentages of BM cells in G2/S/M, per replicate (Figure 4d bottom right panel): 35% and 40% and 41% and 39%
[4]; [9]
  G0: 17.593 and 13.329 and 15.794 and 18.75 and 23.139 and 16.263 and 18.5
  G1: 51.409 and 55.557 and 49.648 and 46.611 and 42.434 and 51.122 and 52.817
  G2SM: 27.738 and 29.087 and 32.369 and 30.422 and 28.183 and 29.707 and 25.745
[5]; 18 h, irradiated C57BL/6 mice
  homing of transplanted BM sca-1+lin− cells: no effect on homing
[5]; 18 hours, 5 mg/kg DJ001 subcutaneously, 5 mg/kg
  percentage of donor DsRed+ cells in the BM, per mouse (Supplementary Figure 8b): 0.19% and 0.183% and 0.207%
[6]; NSG mice, 12 weeks post transplant
  engraftment of human CD45+ cells, CD19+ B cells, CD33+ myeloid cells, and CD3+ T cells vs control: several – fold increased multilineage engraftment; also recorded: substantially increased engraftment
[6]; [10]
  Figure 5g (center left panel): human engraftment in NSG mice: 0.66 and 2.13 and 0.13 and 1.76 and 1.28 and 0.22 and 0.24 and 0.04 and 0.73 and 2.53 and 0.35
  Figure 5g (center panel): human engraftment in NSG mice: 2.25 and 0.8 and 0.17 and 0.56 and 4.4 and 0.31 and 5 and 1.4 and 1.23 and 5.34 and 6.53
  Figure 5g (center right panel): human engraftment in NSG mice: 0.24 and 0.34 and 1.91 and 0.16 and 0.67 and 0.92 and 0.14 and 0.94 and 0.48 and 4.07 and 1.41 and 1.1
  Figure 5g (left panel): human engraftment in NSG mice: 4.16 and 2.8 and 0.36 and 1.45 and 9.56 and 0.9 and 12.2 and 3.82 and 4.68 and 14.9 and 12.5
  Figure 5g (right panel): human engraftment in NSG mice: 0.25 and 1.48 and 0.96 and 0.1 and 0.49 and 1.86 and 0.23 and 1.47 and 1.13 and 2 and 5.49 and 5.38
